These results are taken from BindingDB's records for patent US20230312550 (Astrazeneca, 2023).

The target in this test is T1, Prolyl endopeptidase FAP (Homo sapiens, UniProt Q12884).
T1 sequence (Q12884 whole entry): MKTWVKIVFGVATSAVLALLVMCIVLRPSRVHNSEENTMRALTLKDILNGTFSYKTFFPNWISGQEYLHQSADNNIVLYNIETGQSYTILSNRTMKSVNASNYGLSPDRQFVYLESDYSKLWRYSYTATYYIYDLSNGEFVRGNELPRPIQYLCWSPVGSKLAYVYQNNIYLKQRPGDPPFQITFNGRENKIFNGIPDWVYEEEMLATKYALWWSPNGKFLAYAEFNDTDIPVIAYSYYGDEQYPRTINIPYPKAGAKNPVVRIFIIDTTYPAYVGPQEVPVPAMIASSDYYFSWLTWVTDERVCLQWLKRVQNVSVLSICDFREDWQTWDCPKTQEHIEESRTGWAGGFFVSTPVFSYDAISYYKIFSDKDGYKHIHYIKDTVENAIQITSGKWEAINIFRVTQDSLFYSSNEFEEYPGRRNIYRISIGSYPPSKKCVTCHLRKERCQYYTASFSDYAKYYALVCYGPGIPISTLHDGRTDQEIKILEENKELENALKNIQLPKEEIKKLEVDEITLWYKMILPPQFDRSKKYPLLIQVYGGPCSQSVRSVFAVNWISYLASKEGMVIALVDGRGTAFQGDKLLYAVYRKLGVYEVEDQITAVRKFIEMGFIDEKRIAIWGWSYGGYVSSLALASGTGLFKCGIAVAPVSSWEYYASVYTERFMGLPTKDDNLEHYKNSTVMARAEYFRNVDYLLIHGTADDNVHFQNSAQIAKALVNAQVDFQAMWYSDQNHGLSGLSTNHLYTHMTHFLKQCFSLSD
Put plainly: hFAP Binding Assay. Conditions: for kon: read-out: kon (M-1-s-1).

Take `N#C[C@@H]1CSCN1C(=O)CNC(=O)c1ccnc2ccc(N3CC(CC(F)F)C3)cc12` [US20230312550, Example 144]: the koff (commonly the rate constant with which the complex falls apart) amounted to 0.00051 s⁻¹ and the kon (in general, the rate constant with which the complex forms) was 9.1e+06 M⁻¹ s⁻¹.

In the case of `C[C@H]1CC(F)(F)CCN1c1ccc2nccc(C(=O)NCC(=O)N3CSC[C@H]3C#N)c2c1` [US20230312550, Example 44], the koff was 7.2e-05 s⁻¹ and the kon worked out at 1.7e+06 M⁻¹ s⁻¹.

For `N#C[C@@H]1CSCN1C(=O)CNC(=O)c1ccnc2ccc(N3C[C@H](F)[C@@H](F)C3)cc12` [US20230312550, Example 213], the koff was determined as 0.00017 s⁻¹ and the association rate constant (kon) is 4.4e+06 M⁻¹ s⁻¹.

Turning to `N#C[C@@H]1CSCN1C(=O)CNC(=O)c1ccnc2ccc(N3CCC4(CC4)C3)cc12` [US20230312550, Example 49], the koff amounted to 0.00017 s⁻¹ and the kon stood at 8.8e+06 M⁻¹ s⁻¹.

Consider `CO[C@@H]1CCN(c2ccc3nccc(C(=O)NCC(=O)N4CSC[C@H]4C#N)c3c2)C1` [US20230312550, Example 161], for which the koff came out at 0.00028 s⁻¹ and the kon was 1.4e+07 M⁻¹ s⁻¹.

Turning to `CC1(CF)CCN(c2ccc3nccc(C(=O)NCC(=O)N4CSC[C@H]4C#N)c3c2)CC1` [US20230312550, Example 37], the koff was 3e-05 s⁻¹ and the kon came out at 1e+06 M⁻¹ s⁻¹.

For `N#C[C@@H]1CSCN1C(=O)CNC(=O)c1ccnc2ccc(N3CC4CCC(C3)O4)cc12` [US20230312550, Example 79], the koff was found to be 0.00012 s⁻¹ and the kon was determined as 1.6e+07 M⁻¹ s⁻¹.

Regarding `C[C@H]1CCCN(c2ccc3nccc(C(=O)NCC(=O)N4CSC[C@H]4C#N)c3c2)C1=O` [US20230312550, Example 203], the koff amounted to 6.3e-05 s⁻¹ and the kon came to 440000 M⁻¹ s⁻¹.

For the molecule `N#C[C@@H]1CSCN1C(=O)CNC(=O)c1ccnc2ccc(N3CCSCC3)cc12` [US20230312550, Example 3], the koff was 0.0004 s⁻¹ and the kon was found to be 4.1e+06 M⁻¹ s⁻¹.

Consider `CCC1(O)CCN(c2ccc3nccc(C(=O)NCC(=O)N4CSC[C@H]4C#N)c3c2)CC1` [US20230312550, Example 189], for which the koff turned out to be 5.1e-05 s⁻¹ and the kon was determined as 2.6e+06 M⁻¹ s⁻¹.

On to `N#C[C@@H]1CSCN1C(=O)CNC(=O)c1ccnc2ccc(N3CCCCC3=O)cc12` [US20230312550, Example 14], for which the koff is 6.4e-05 s⁻¹ and the kon stood at 1.3e+06 M⁻¹ s⁻¹.

Consider `Cc1ccn(-c2ccc3nccc(C(=O)NCC(=O)N4CSC[C@H]4C#N)c3c2)c1` [US20230312550, Example 121], for which the koff came out at 1.6e-05 s⁻¹ and the kon worked out at 1.1e+06 M⁻¹ s⁻¹.

Take `N#C[C@@H]1CSCN1C(=O)CNC(=O)c1ccnc2ccc(N3CC(OC(F)(F)F)C3)cc12` [US20230312550, Example 132]: the koff turned out to be 0.00014 s⁻¹ and the kon is 270000 M⁻¹ s⁻¹.

Regarding `N#C[C@@H]1CSCN1C(=O)CNC(=O)c1ccnc2ccc(-n3ccc(-c4ccccc4)c3)cc12` [US20230312550, Example 218], the koff was found to be 0.00032 s⁻¹ and the kon came out at 670000 M⁻¹ s⁻¹.

With `COC[C@@H]1CCCN1c1ccc2nccc(C(=O)NCC(=O)N3CSC[C@H]3C#N)c2c1` [US20230312550, Example 212], the koff is 0.00034 s⁻¹ and the kon amounted to 3.3e+06 M⁻¹ s⁻¹.

For the molecule `N#C[C@@H]1CSCN1C(=O)CNC(=O)c1ccnc2ccc(N3CC(F)(c4ccccc4)C3)cc12` [US20230312550, Example 182], the koff worked out at 4.2e-05 s⁻¹ and the kon came out at 250000 M⁻¹ s⁻¹.

With `CCC1(C)CN(c2ccc3nccc(C(=O)NCC(=O)N4CSC[C@H]4C#N)c3c2)C1` [US20230312550, Example 137], the koff was determined as 9.8e-05 s⁻¹ and the kon worked out at 9.5e+06 M⁻¹ s⁻¹.

Take `N#C[C@@H]1CSCN1C(=O)CNC(=O)c1ccnc2ccc(N3CCCCC3)cc12` [US20230312550, Example 32]: the koff was determined as 2.9e-05 s⁻¹ and the kon amounted to 1.3e+06 M⁻¹ s⁻¹.

As for `CC1CN(c2ccc3nccc(C(=O)NCC(=O)N4CSC[C@H]4C#N)c3c2)C1` [US20230312550, Example 25], the koff is 0.00011 s⁻¹ and the kon was determined as 1.4e+06 M⁻¹ s⁻¹.

On to `N#C[C@@H]1CSCN1C(=O)CNC(=O)c1ccnc2cc(Cl)c(N3CCOCC3)cc12` [US20230312550, Example 179], for which the koff was determined as 0.00016 s⁻¹ and the kon stood at 3.2e+06 M⁻¹ s⁻¹.

As to `N#C[C@@H]1CSCN1C(=O)CNC(=O)c1ccnc2ccc(N3CCC34CCC4)cc12` [US20230312550, Example 19], the koff came to 6.6e-05 s⁻¹ and the kon stood at 430000 M⁻¹ s⁻¹.

With `N#C[C@@H]1CSCN1C(=O)CNC(=O)c1ccnc2ccc(N3C[C@@H](F)[C@H](F)C3)cc12` [US20230312550, Example 214], the koff worked out at 9.2e-05 s⁻¹ and the kon was determined as 2.9e+06 M⁻¹ s⁻¹.

Regarding `C[C@H]1CCCN1c1ccc2nccc(C(=O)NCC(=O)N3CSC[C@H]3C#N)c2c1` [US20230312550, Example 65], the koff turned out to be 0.00047 s⁻¹ and the kon turned out to be 6.7e+06 M⁻¹ s⁻¹.

With `C[C@@H]1CCN(c2ccc3nccc(C(=O)NCC(=O)N4CSC[C@H]4C#N)c3c2)C1=O` [US20230312550, Example 202], the koff came out at 7e-05 s⁻¹ and the kon was 1.6e+06 M⁻¹ s⁻¹.

In the case of `CC(F)(F)C1CN(c2ccc3nccc(C(=O)NCC(=O)N4CSC[C@H]4C#N)c3c2)C1` [US20230312550, Example 147], the koff came to 0.00012 s⁻¹ and the kon amounted to 2.8e+06 M⁻¹ s⁻¹.

As for `Cc1nc(C)c(-c2ccc3nccc(C(=O)NCC(=O)N4CSC[C@H]4C#N)c3c2)o1` [US20230312550, Example 215], the koff is 0.00017 s⁻¹ and the kon was 1.8e+06 M⁻¹ s⁻¹.

Regarding `Cc1ccc(-c2ccc3nccc(C(=O)NCC(=O)N4CSC[C@H]4C#N)c3c2)cn1` [US20230312550, Example 177], the off-rate constant (koff) stood at 5.8e-05 s⁻¹ and the kon was 100000 M⁻¹ s⁻¹.

As for `CO[C@H]1CCCN(c2ccc3nccc(C(=O)NCC(=O)N4CSC[C@H]4C#N)c3c2)C1` [US20230312550, Example 41], the koff was 6.4e-05 s⁻¹ and the kon was found to be 680000 M⁻¹ s⁻¹.

As to `N#C[C@@H]1CSCN1C(=O)CNC(=O)c1ccnc2ccc(N3CC(Cc4ccc(Cl)cc4)C3)cc12` [US20230312550, Example 187], the koff is 0.00022 s⁻¹ and the kon was 3.1e+06 M⁻¹ s⁻¹.

Take `CC1(C2CC2)CN(c2ccc3nccc(C(=O)NCC(=O)N4CSC[C@H]4C#N)c3c2)C1` [US20230312550, Example 134]: the koff was determined as 8e-05 s⁻¹ and the kon was found to be 620000 M⁻¹ s⁻¹.

Consider `CC1(C)COC12CN(c1ccc3nccc(C(=O)NCC(=O)N4CSC[C@H]4C#N)c3c1)C2` [US20230312550, Example 18], for which the koff came to 5.9e-05 s⁻¹ and the kon worked out at 1.4e+06 M⁻¹ s⁻¹.

`Cn1nccc1-c1ccc2nccc(C(=O)NCC(=O)N3CSC[C@H]3C#N)c2c1` [US20230312550, Example 174]: the koff amounted to 0.00024 s⁻¹ and the kon amounted to 1.9e+06 M⁻¹ s⁻¹.

For `N#C[C@@H]1CSCN1C(=O)CNC(=O)c1ccnc2ccc(-c3ccc(C(F)F)nc3)cc12` [US20230312550, Example 169], the koff turned out to be 0.00096 s⁻¹ and the kon came out at 6.2e+06 M⁻¹ s⁻¹.

Regarding `N#C[C@@H]1CSCN1C(=O)CNC(=O)c1ccnc2ccc(N3CCC[C@H]3C3CC3)cc12` [US20230312550, Example 200], the koff worked out at 0.00023 s⁻¹ and the kon was determined as 2.5e+06 M⁻¹ s⁻¹.

In the case of `N#C[C@@H]1CSCN1C(=O)CNC(=O)c1ccnc2ccc(N3CCCC[C@H](F)C3)cc12` [US20230312550, Example 60], the koff turned out to be 0.00017 s⁻¹ and the kon was determined as 1.7e+06 M⁻¹ s⁻¹.

With `C[C@@H]1CCCN1c1ccc2nccc(C(=O)NCC(=O)N3CSC[C@H]3C#N)c2c1` [US20230312550, Example 211], the koff amounted to 0.0002 s⁻¹ and the kon was 5.9e+06 M⁻¹ s⁻¹.

For `N#C[C@@H]1CSCN1C(=O)CNC(=O)c1ccnc2ccc(N3CC(C(F)F)C3)cc12` [US20230312550, Example 28], the koff worked out at 0.00011 s⁻¹ and the kon is 1.1e+06 M⁻¹ s⁻¹.

Take `N#C[C@@H]1CSCN1C(=O)CNC(=O)c1ccnc2ccc(N3CCCC[C@H]3CF)cc12` [US20230312550, Example 45]: the koff turned out to be 0.00018 s⁻¹ and the kon amounted to 5.4e+06 M⁻¹ s⁻¹.

`N#C[C@@H]1CSCN1C(=O)CNC(=O)c1ccnc2ccc(N3CC(N4CCOCC4)C3)cc12` [US20230312550, Example 122]: the koff was 4.3e-05 s⁻¹ and the on-rate constant (kon) was 1.3e+06 M⁻¹ s⁻¹.

Take `C[C@@H]1CN(c2ccc3nccc(C(=O)NCC(=O)N4CSC[C@H]4C#N)c3c2)C[C@H](C)[C@@H]1O` [US20230312550, Example 7]: the koff was determined as 7.5e-05 s⁻¹ and the kon is 740000 M⁻¹ s⁻¹.

In the case of `N#C[C@@H]1CSCN1C(=O)CNC(=O)c1ccnc2ccc(N3CC(F)(F)C3)cc12` [US20230312550, Example 23], the koff amounted to 0.00018 s⁻¹ and the kon was 2.1e+06 M⁻¹ s⁻¹.

For the molecule `C[C@H]1CCN(c2ccc3nccc(C(=O)NCC(=O)N4CSC[C@H]4C#N)c3c2)C1` [US20230312550, Example 54], the koff was found to be 0.00023 s⁻¹ and the kon was found to be 6.2e+06 M⁻¹ s⁻¹.

Take `CC1(C)OCCN(c2ccc3nccc(C(=O)NCC(=O)N4CSC[C@H]4C#N)c3c2)C1=O` [US20230312550, Example 16]: the koff was found to be 4.1e-05 s⁻¹ and the kon stood at 740000 M⁻¹ s⁻¹.

`N#C[C@@H]1CSCN1C(=O)CNC(=O)c1ccnc2ccc(N3CC(C4CC4)C3)cc12` [US20230312550, Example 145]: the koff is 0.00013 s⁻¹ and the kon turned out to be 4.5e+06 M⁻¹ s⁻¹.
